In brackets after ≈: the same amount, converted by molar mass.

One test relates to Candida albicans GC 3066. The experiment in a line: MIC by broth dilution. Type of test: cell-based. Particulars: GC3066, 18 h, Table 1, 18 hours at 35° C. How it is done:
(§1) The minimum inhibitory concentration (MIC), the lowest concentration of the antibiotic which inhibits growth of the test organism, is determined by the broth dilution method using Muller-Hinton II […] (Baltimore Biological Laboratories) following the recommendations of the National Committee for Clinical Laboratory Standards [Methods for dilution antimicrobial susceptibility tests for bacteria that grow aerobically. Approved standard M7-A2. National Committee for Clinical Laboratory Standards, Villanova, Pa].
(§2) An inoculum level of 5×10^5 CFU/ml, and a range of antibiotic concentrations (64–0.06 μg/ml) is used. The MIC is determined after the microtiter plates are incubated for 18 hours at 35° C. in an ambient air incubator. The test organisms comprise a spectrum of the Gram-positive bacteria Staphylococcus aureus, Streptococcus pneumoniae, and Enterococcus sp., the Gram-negative bacteria Escherichia coli, and the yeast Candida albicans. These organisms include recent clinical isolates that are resistant to methicillin and vancomycin. MIC data of Cyan-416 A–E are listed in Table 1 and MIC data of ester derivatives of Cyan-416 B (Formula I) are listed in Table 2.
In general terms: Broth dilution looks for growth in wells or tubes with falling amounts of substance.
Regarding `COC(=O)c1c(O)ccc(O)c1C(=O)c1c(O)cc(C)cc1O` [Example 4a, Cyan-416 D], the MIC is more than 64 µg/mL.

Staying with this test, now noted: GC3066, 18 h, Table 2, 18 hours at 35° C.
The molecule `CCCCCC(=O)O[C@H]1c2cc(C)cc(O)c2C(O)=C2C(=O)[C@H]3C=C[C@]21Cc1cc(O)c(C(=O)c2c(O)ccc(O)c2C(=O)OC)c(O)c13` [Example 9, Cyan-416 B hexanoate] registered an MIC of more than 128 µg/mL.

For the next test, the system named is Enterococcus faecalis GC 2242. The experiment in a line: MIC by broth dilution. It counts as cell-based. The settings on record: GC2242, Table 1, 18 hours at 35° C., read-out: MIC. How it is done: as §1, §2
For `COC(=O)c1c(O)ccc(O)c1C(=O)c1c(O)cc(C)cc1O` [Example 4a, Cyan-416 D], the minimum inhibitory concentration (MIC) amounted to 32 µg/mL (≈ 101 µM).

Staying with this test, now noted: GC2242, Table 2, 18 hours at 35° C., read-out: MIC.
For the molecule `CCCCCC(=O)O[C@H]1c2cc(C)cc(O)c2C(O)=C2C(=O)[C@H]3C=C[C@]21Cc1cc(O)c(C(=O)c2c(O)ccc(O)c2C(=O)OC)c(O)c13` [Example 9, Cyan-416 B hexanoate], the MIC was found to be 4 µg/mL (≈ 5.96 µM).

The next test deals with Enterococcus faecalis GC 4555. The experiment in a line: MIC by broth dilution. It counts as cell-based. The settings on record: GC4555, Table 1, 18 hours at 35° C., read-out: MIC. On the procedure:
as §1, §2
As to `COC(=O)c1c(O)ccc(O)c1C(=O)c1c(O)cc(C)cc1O` [Example 4a, Cyan-416 D], the MIC was determined as 64 µg/mL (≈ 201 µM).

Still in this test, the particulars now being: GC4555, Table 2, 18 hours at 35° C., read-out: MIC.
Consider `CCCCCC(=O)O[C@H]1c2cc(C)cc(O)c2C(O)=C2C(=O)[C@H]3C=C[C@]21Cc1cc(O)c(C(=O)c2c(O)ccc(O)c2C(=O)OC)c(O)c13` [Example 9, Cyan-416 B hexanoate], for which the MIC was determined as 4 µg/mL (≈ 5.96 µM).

The next test has as its system Enterococcus faecalis GC 6189. The experiment in a line: MIC by broth dilution. Type of test: cell-based. The settings on record: GC6189, Table 2, 18 hours at 35° C. On the procedure: as §1, §2
Molecule `CCCCCC(=O)O[C@H]1c2cc(C)cc(O)c2C(O)=C2C(=O)[C@H]3C=C[C@]21Cc1cc(O)c(C(=O)c2c(O)ccc(O)c2C(=O)OC)c(O)c13` [Example 9, Cyan-416 B hexanoate] yielded an MIC of 4 µg/mL (≈ 5.96 µM).

The next test concerns Enterococcus faecalis GC 842. The experiment in a line: MIC by broth dilution. Particulars: GC842, Table 1, 18 hours at 35° C. Type of test: cell-based. How it is done: as §1, §2
`COC(=O)c1c(O)ccc(O)c1C(=O)c1c(O)cc(C)cc1O` [Example 4a, Cyan-416 D]: the minimum inhibitory concentration (MIC) was found to be 64 µg/mL (≈ 201 µM).

For the next test, the system named is Enterococcus faecium 4558. The experiment in a line: MIC by broth dilution. The settings on record: Table 2, 18 hours at 35° C. It counts as cell-based. How it is done:
as §1, §2
For `CCCCCC(=O)O[C@H]1c2cc(C)cc(O)c2C(O)=C2C(=O)[C@H]3C=C[C@]21Cc1cc(O)c(C(=O)c2c(O)ccc(O)c2C(=O)OC)c(O)c13` [Example 9, Cyan-416 B hexanoate], the MIC turned out to be 2 µg/mL (≈ 2.98 µM).

The next test concerns Enterococcus faecium GC 2243. The experiment in a line: MIC by broth dilution. It counts as cell-based. Particulars: GC2243, Table 2, 18 hours at 35° C. On the procedure: as §1, §2
With `CCCCCC(=O)O[C@H]1c2cc(C)cc(O)c2C(O)=C2C(=O)[C@H]3C=C[C@]21Cc1cc(O)c(C(=O)c2c(O)ccc(O)c2C(=O)OC)c(O)c13` [Example 9, Cyan-416 B hexanoate], the MIC turned out to be 4 µg/mL (≈ 5.96 µM).

The subject of the next test is Enterococcus faecium GC 4556. The experiment in a line: MIC by broth dilution. Type of test: cell-based. Particulars: GC4556, Table 2, 18 hours at 35° C. On the procedure: as §1, §2
Consider `CCCCCC(=O)O[C@H]1c2cc(C)cc(O)c2C(O)=C2C(=O)[C@H]3C=C[C@]21Cc1cc(O)c(C(=O)c2c(O)ccc(O)c2C(=O)OC)c(O)c13` [Example 9, Cyan-416 B hexanoate], for which the lowest concentration to inhibit growth (MIC) was 4 µg/mL (≈ 5.96 µM).

The subject of another test is Escherichia coli GC 2203. The experiment in a line: MIC by broth dilution. Type of test: cell-based. The settings on record: GC2203, 18 h, Table 1, Escherichia coli GC 2203, 18 hours at 35° C. On the procedure: as §1, §2
In the case of `COC(=O)c1c(O)ccc(O)c1C(=O)c1c(O)cc(C)cc1O` [Example 4a, Cyan-416 D], the MIC is more than 64 µg/mL.

Still in this test, the particulars now being: GC2203, 18 h, Table 2, Escherichia coli coli GC 2203, 18 hours at 35° C.
Molecule `CCCCCC(=O)O[C@H]1c2cc(C)cc(O)c2C(O)=C2C(=O)[C@H]3C=C[C@]21Cc1cc(O)c(C(=O)c2c(O)ccc(O)c2C(=O)OC)c(O)c13` [Example 9, Cyan-416 B hexanoate] had an MIC of more than 128 µg/mL.

Another test deals with Escherichia coli GC 4560 (imp). The experiment in a line: MIC by broth dilution. Particulars: Escherichia coli, 18 h. It counts as cell-based. How it is done: as §1, §2
`CCCCCC(=O)O[C@H]1c2cc(C)cc(O)c2C(O)=C2C(=O)[C@H]3C=C[C@]21Cc1cc(O)c(C(=O)c2c(O)ccc(O)c2C(=O)OC)c(O)c13` [Example 9, Cyan-416 B hexanoate]: the lowest concentration to inhibit growth (MIC) was 8 µg/mL (≈ 11.9 µM).
`COC(=O)c1c(O)ccc(O)c1C(=O)c1c(O)cc(C)cc1O` [Example 4a, Cyan-416 D] came in with an MIC of 64 µg/mL (≈ 201 µM).

The test system of another test is Staphylococcus aureus GC 1131. The experiment in a line: MIC by broth dilution. Type of test: cell-based. The settings on record: GC1131, Table 1, 18 hours at 35° C., read-out: MIC. On the procedure: as §1, §2
As to `COC(=O)c1c(O)ccc(O)c1C(=O)c1c(O)cc(C)cc1O` [Example 4a, Cyan-416 D], the MIC came to 64 µg/mL (≈ 201 µM).

Staying with this test, now noted: GC1131, Table 2, 18 hours at 35° C., read-out: MIC.
Regarding `CCCCCC(=O)O[C@H]1c2cc(C)cc(O)c2C(O)=C2C(=O)[C@H]3C=C[C@]21Cc1cc(O)c(C(=O)c2c(O)ccc(O)c2C(=O)OC)c(O)c13` [Example 9, Cyan-416 B hexanoate], the MIC came to 4 µg/mL (≈ 5.96 µM).

In a further test the test system is Staphylococcus aureus GC 2216. The experiment in a line: MIC by broth dilution. It counts as cell-based. The settings on record: GC2216, Table 1, 18 hours at 35° C., read-out: MIC. On the procedure: as §1, §2
For the molecule `COC(=O)c1c(O)ccc(O)c1C(=O)c1c(O)cc(C)cc1O` [Example 4a, Cyan-416 D], the MIC was 64 µg/mL (≈ 201 µM).

The same test, now with this note: GC2216, Table 2, 18 hours at 35° C., read-out: MIC.
As to `CCCCCC(=O)O[C@H]1c2cc(C)cc(O)c2C(O)=C2C(=O)[C@H]3C=C[C@]21Cc1cc(O)c(C(=O)c2c(O)ccc(O)c2C(=O)OC)c(O)c13` [Example 9, Cyan-416 B hexanoate], the MIC turned out to be 4 µg/mL (≈ 5.96 µM).

A further test concerns Staphylococcus aureus GC 4536. The experiment in a line: MIC by broth dilution. It counts as cell-based. Particulars: GC4536, Table 1, 18 hours at 35° C. On the procedure:
as §1, §2
`COC(=O)c1c(O)ccc(O)c1C(=O)c1c(O)cc(C)cc1O` [Example 4a, Cyan-416 D] registered a minimal inhibitory concentration (MIC) of 64 µg/mL (≈ 201 µM).

In the next test the test system is Staphylococcus aureus GC 4541. The experiment in a line: MIC by broth dilution. It counts as cell-based. The settings on record: GC4541, Table 2, 18 hours at 35° C. How it is done: as §1, §2
`CCCCCC(=O)O[C@H]1c2cc(C)cc(O)c2C(O)=C2C(=O)[C@H]3C=C[C@]21Cc1cc(O)c(C(=O)c2c(O)ccc(O)c2C(=O)OC)c(O)c13` [Example 9, Cyan-416 B hexanoate]: the minimal inhibitory concentration (MIC) is 4 µg/mL (≈ 5.96 µM).

For the next test, the system named is Staphylococcus aureus GC 4543. The experiment in a line: MIC by broth dilution. The settings on record: GC4543, Table 2, 18 hours at 35° C. Type of test: cell-based. How it is done:
as §1, §2
The molecule `CCCCCC(=O)O[C@H]1c2cc(C)cc(O)c2C(O)=C2C(=O)[C@H]3C=C[C@]21Cc1cc(O)c(C(=O)c2c(O)ccc(O)c2C(=O)OC)c(O)c13` [Example 9, Cyan-416 B hexanoate] registered an MIC of 4 µg/mL (≈ 5.96 µM).

The next test has as its system Staphylococcus haemolyticus GC 4547. The experiment in a line: MIC by broth dilution. It counts as cell-based. Particulars: GC4547, Table 2, 18 hours at 35° C. On the procedure:
as §1, §2
In the case of `CCCCCC(=O)O[C@H]1c2cc(C)cc(O)c2C(O)=C2C(=O)[C@H]3C=C[C@]21Cc1cc(O)c(C(=O)c2c(O)ccc(O)c2C(=O)OC)c(O)c13` [Example 9, Cyan-416 B hexanoate], the MIC is 4 µg/mL (≈ 5.96 µM).

A further test relates to Streptococcus pneumoniae GC 1894. The experiment in a line: MIC by broth dilution. Type of test: cell-based. Particulars: GC1894, Table 2, 18 hours at 35° C. How it is done: as §1, §2
The molecule `CCCCCC(=O)O[C@H]1c2cc(C)cc(O)c2C(O)=C2C(=O)[C@H]3C=C[C@]21Cc1cc(O)c(C(=O)c2c(O)ccc(O)c2C(=O)OC)c(O)c13` [Example 9, Cyan-416 B hexanoate] gave an MIC of 8 µg/mL (≈ 11.9 µM).

Another test has as its system Streptococcus pneumoniae GC 6242. The experiment in a line: MIC by broth dilution. Type of test: cell-based. The settings on record: GC6242, Table 2, 18 hours at 35° C. On the procedure: as §1, §2
For `CCCCCC(=O)O[C@H]1c2cc(C)cc(O)c2C(O)=C2C(=O)[C@H]3C=C[C@]21Cc1cc(O)c(C(=O)c2c(O)ccc(O)c2C(=O)OC)c(O)c13` [Example 9, Cyan-416 B hexanoate], the lowest concentration to inhibit growth (MIC) was 8 µg/mL (≈ 11.9 µM).

A further test relates to Pseudomonas aeruginosa GC 2214. The experiment in a line: MIC by broth dilution. Type of test: cell-based. The settings on record: GC2214, Table 1, 18 hours at 35° C.
For the molecule `COC(=O)c1c(O)ccc(O)c1C(=O)c1c(O)cc(C)cc1O` [Example 4a, Cyan-416 D], the MIC was more than 64 µg/mL.

A word on the MIC: it is the least concentration at which growth counts as inhibited.

Values taken from US7078556B2, “Antibiotics Cyan-416 A, Cyan-416 B, Cyan-416 C, Cyan-416 D and Cyan-416 E, and ester derivatives of Cyan-416 B” (Wyeth Holdings Corporation, priority 2002, dated 2006).
